Measurements published in ChEMBL document CHEMBL1201862, “PubChem BioAssay data set” (2004).
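A five-concentration, 48-hour dose response in 96-well plates underlies each endpoint, interpolated linearly between surrounding concentrations. GI50 = concentration required for 50% inhibition of growth.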 Calls of active or inactive are those of the source. No stated cut-off is given here; in the data, active = GI50 up to about 1.1 µM and inactive = higher.

Experiments:
Assay in all cases: DTP human tumour cell line panel, 48 h
[1] = tested on: COLO 205
[2] = tested on: EKVX
[3] = tested on: HOP-92
[4] = tested on: HT-29
[5] = tested on: Hs-578T
[6] = tested on: LOX IMVI
[7] = tested on: M14
[8] = tested on: MCF7
[9] = tested on: MDA-MB-435
[10] = tested on: MOLT-4
[11] = tested on: Malme-3M
[12] = tested on: NCI-H226
[13] = tested on: NCI-H460
[14] = tested on: NCI/ADR-RES
[15] = tested on: SF-295
[16] = tested on: SK-MEL-28
[17] = tested on: SNB-19
[18] = tested on: SNB-75
[19] = tested on: T47D
[20] = tested on: RPMI-8226

Measured: GI50

Cc1ccc(Cc2n[nH]c(=O)n2N2C(=O)c3ccccc3C2=O)cc1
inactive: [1] > 100 µM | [2] > 100 µM | [3] > 100 µM | [4] > 100 µM | [5] > 100 µM | [6] > 100 µM | [7] > 100 µM | [8] > 100 µM | [9] > 100 µM | [10] > 100 µM | [11] > 100 µM | [12] > 100 µM | [13] > 100 µM | [14] > 100 µM | [15] > 100 µM | [16] > 100 µM | [17] > 100 µM | [18] 91.4 µM | [19] > 100 µM

COc1ccc(N2C(N)=C(C#N)C(C#N)(C#N)C2c2cccc([N+](=O)[O-])c2)cc1 (configuration not stated)
inactive: [1] 10.7 µM | [2] 20.7 µM | [3] 12.9 µM | [4] 13.9 µM | [5] 24 µM | [6] 13.5 µM | [7] 17.3 µM | [8] 19.9 µM | [9] 16.9 µM | [10] 3.78 µM | [11] 6.73 µM | [12] 19.8 µM | [14] 21.1 µM | [20] 11.6 µM | [15] 19.1 µM | [16] 8.57 µM | [17] 17.9 µM | [18] 18.8 µM | [19] 12.6 µM

O=C1c2ccccc2CN1c1ccc(O)cc1
inactive: [1] > 100 µM | [2] > 100 µM | [3] > 100 µM | [4] > 100 µM | [5] > 100 µM | [6] > 100 µM | [7] > 100 µM | [8] > 100 µM | [9] > 100 µM | [10] > 100 µM | [11] > 100 µM | [12] > 100 µM | [13] > 100 µM | [14] > 100 µM | [20] > 100 µM | [15] > 100 µM | [16] > 100 µM | [17] > 100 µM | [19] > 100 µM
